Assay results published in ChEMBL document CHEMBL1152441, “Discovery of [18F]N-(2-(diethylamino)ethyl)-6-fluoronicotinamide: a melanoma positron emission tomography imaging radiotracer with high tumor to body contrast ratio and rapid renal clearance” (J Med Chem, 2009).

Tests used:
[1] = Biodistribution in eye of mouse B16F0 cells implanted C57BL/6J mouse assessed per gram of tissue at 0.4 to 5.5 MBq, iv after 0.25 hrs by gamma counter; type: ADME, organism-based; conditions: in vivo
[2] = Biodistribution in tumor of mouse B16F0 cells implanted C57BL/6J mouse assessed per gram of tissue at 0.4 to 5.5 MBq, iv after 6 hrs by gamma counter; type: ADME, organism-based, Neoplasm; conditions: in vivo
[3] = Biodistribution in tumor of mouse B16F0 cells implanted C57BL/6J mouse assessed per gram of tissue at 0.4 to 5.5 MBq, iv after 3 hrs by gamma counter; type: ADME, organism-based, Neoplasm; conditions: in vivo
[4] = Biodistribution in tumor of mouse B16F0 cells implanted C57BL/6J mouse assessed per gram of tissue at 0.4 to 5.5 MBq, iv after 1 hr by gamma counter; type: ADME, organism-based, Neoplasm; conditions: in vivo
[5] = Biodistribution in tumor of mouse B16F0 cells implanted C57BL/6J mouse assessed per gram of tissue at 0.4 to 5.5 MBq, iv after 0.25 hrs by gamma counter; type: ADME, organism-based, Neoplasm; conditions: in vivo
[6] = Lipophilicity, log P at pH 7.5; type: physicochemical; conditions: buffer
Bone [7] = test: Biodistribution in bone of mouse B16F0 cells implanted C57BL/6J mouse assessed per gram of tissue at 0.4 to 5.5 MBq, iv after 6 hrs by gamma counter; type: ADME, organism-based, Bone element; conditions: in vivo
Bone [8] = test: Biodistribution in bone of mouse B16F0 cells implanted C57BL/6J mouse assessed per gram of tissue at 0.4 to 5.5 MBq, iv after 3 hrs by gamma counter; type: ADME, organism-based, Bone element; conditions: in vivo
Bone [9] = test: Biodistribution in bone of mouse B16F0 cells implanted C57BL/6J mouse assessed per gram of tissue at 0.4 to 5.5 MBq, iv after 1 hr by gamma counter; type: ADME, organism-based, Bone element; conditions: in vivo
Bone [10] = test: Biodistribution in bone of mouse B16F0 cells implanted C57BL/6J mouse assessed per gram of tissue at 0.4 to 5.5 MBq, iv after 0.25 hrs by gamma counter; type: ADME, organism-based, Bone element; conditions: in vivo
Intestine [11] = test: Biodistribution in intestine of mouse B16F0 cells implanted C57BL/6J mouse assessed per gram of tissue at 0.4 to 5.5 MBq, iv after 6 hrs by gamma counter; type: ADME, organism-based; conditions: in vivo
Intestine [12] = test: Biodistribution in intestine of mouse B16F0 cells implanted C57BL/6J mouse assessed per gram of tissue at 0.4 to 5.5 MBq, iv after 3 hrs by gamma counter; type: ADME, organism-based; conditions: in vivo
Intestine [13] = test: Biodistribution in intestine of mouse B16F0 cells implanted C57BL/6J mouse assessed per gram of tissue at 0.4 to 5.5 MBq, iv after 1 hr by gamma counter; type: ADME, organism-based; conditions: in vivo
Intestine [14] = test: Biodistribution in intestine of mouse B16F0 cells implanted C57BL/6J mouse assessed per gram of tissue at 0.4 to 5.5 MBq, iv after 0.25 hrs by gamma counter; type: ADME, organism-based; conditions: in vivo
Stomach [15] = test: Biodistribution in stomach of mouse B16F0 cells implanted C57BL/6J mouse assessed per gram of tissue at 0.4 to 5.5 MBq, iv after 6 hrs by gamma counter; type: ADME, organism-based; conditions: in vivo
Stomach [16] = test: Biodistribution in stomach of mouse B16F0 cells implanted C57BL/6J mouse assessed per gram of tissue at 0.4 to 5.5 MBq, iv after 3 hrs by gamma counter; type: ADME, organism-based; conditions: in vivo
Stomach [17] = test: Biodistribution in stomach of mouse B16F0 cells implanted C57BL/6J mouse assessed per gram of tissue at 0.4 to 5.5 MBq, iv after 1 hr by gamma counter; type: ADME, organism-based; conditions: in vivo
Stomach [18] = test: Biodistribution in stomach of mouse B16F0 cells implanted C57BL/6J mouse assessed per gram of tissue at 0.4 to 5.5 MBq, iv after 0.25 hrs by gamma counter; type: ADME, organism-based; conditions: in vivo
Thyroid gland [19] = test: Biodistribution in thyroid of mouse B16F0 cells implanted C57BL/6J mouse assessed per gram of tissue at 0.4 to 5.5 MBq, iv after 6 hrs by gamma counter; type: ADME, organism-based; conditions: in vivo
Thyroid gland [20] = test: Biodistribution in thyroid of mouse B16F0 cells implanted C57BL/6J mouse assessed per gram of tissue at 0.4 to 5.5 MBq, iv after 3 hrs by gamma counter; type: ADME, organism-based; conditions: in vivo
Thyroid gland [21] = test: Biodistribution in thyroid of mouse B16F0 cells implanted C57BL/6J mouse assessed per gram of tissue at 0.4 to 5.5 MBq, iv after 1 hr by gamma counter; type: ADME, organism-based; conditions: in vivo
Thyroid gland [22] = test: Biodistribution in thyroid of mouse B16F0 cells implanted C57BL/6J mouse assessed per gram of tissue at 0.4 to 5.5 MBq, iv after 0.25 hrs by gamma counter; type: ADME, organism-based; conditions: in vivo
Spleen [23] = test: Biodistribution in spleen of mouse B16F0 cells implanted C57BL/6J mouse assessed per gram of tissue at 0.4 to 5.5 MBq, iv after 6 hrs by gamma counter; type: ADME, organism-based; conditions: in vivo
Spleen [24] = test: Biodistribution in spleen of mouse B16F0 cells implanted C57BL/6J mouse assessed per gram of tissue at 0.4 to 5.5 MBq, iv after 3 hrs by gamma counter; type: ADME, organism-based; conditions: in vivo
Spleen [25] = test: Biodistribution in spleen of mouse B16F0 cells implanted C57BL/6J mouse assessed per gram of tissue at 0.4 to 5.5 MBq, iv after 1 hr by gamma counter; type: ADME, organism-based; conditions: in vivo
Spleen [26] = test: Biodistribution in spleen of mouse B16F0 cells implanted C57BL/6J mouse assessed per gram of tissue at 0.4 to 5.5 MBq, iv after 0.25 hrs by gamma counter; type: ADME, organism-based; conditions: in vivo
Lung [27] = test: Biodistribution in lung of mouse B16F0 cells implanted C57BL/6J mouse assessed per gram of tissue at 0.4 to 5.5 MBq, iv after 6 hrs by gamma counter; type: ADME, organism-based; conditions: in vivo
Lung [28] = test: Biodistribution in lung of mouse B16F0 cells implanted C57BL/6J mouse assessed per gram of tissue at 0.4 to 5.5 MBq, iv after 3 hrs by gamma counter; type: ADME, organism-based; conditions: in vivo
Lung [29] = test: Biodistribution in lung of mouse B16F0 cells implanted C57BL/6J mouse assessed per gram of tissue at 0.4 to 5.5 MBq, iv after 1 hr by gamma counter; type: ADME, organism-based; conditions: in vivo
Lung [30] = test: Biodistribution in lung of mouse B16F0 cells implanted C57BL/6J mouse assessed per gram of tissue at 0.4 to 5.5 MBq, iv after 0.25 hrs by gamma counter; type: ADME, organism-based; conditions: in vivo
[31] = Biodistribution in eye of mouse B16F0 cells implanted C57BL/6J mouse assessed per gram of tissue at 0.4 to 5.5 MBq, iv after 6 hrs by gamma counter; type: ADME, organism-based; conditions: in vivo
[32] = Biodistribution in eye of mouse B16F0 cells implanted C57BL/6J mouse assessed per gram of tissue at 0.4 to 5.5 MBq, iv after 3 hrs by gamma counter; type: ADME, organism-based; conditions: in vivo
[33] = Biodistribution in eye of mouse B16F0 cells implanted C57BL/6J mouse assessed per gram of tissue at 0.4 to 5.5 MBq, iv after 1 hr by gamma counter; type: ADME, organism-based; conditions: in vivo

Structure (SMILES): CCN(CC)CCNC(=O)c1cccnc1[18F]
- Drug uptake [1]: 36.7%
- Drug uptake [2]: 4.8%
- Drug uptake [3]: 17.3%
- Drug uptake [4]: 14.6%
- Drug uptake [5]: 10.6%
- logD [6]: 0.94
- Drug uptake (Bone [7]): 5.6%
- Drug uptake (Bone [8]): 4.6%
- Drug uptake (Bone [9]): 3.4%
- Drug uptake (Bone [10]): 4.8%
- Drug uptake (Intestine [11]): 3.6%
- Drug uptake (Intestine [12]): 7.1%
- Drug uptake (Intestine [13]): 7.1%
- Drug uptake (Intestine [14]): 7.8%
- Drug uptake (Stomach [15]): 0.7%
- Drug uptake (Stomach [16]): 1.9%
- Drug uptake (Stomach [17]): 6.8%
- Drug uptake (Stomach [18]): 14.7%
- Drug uptake (Thyroid gland [19]): 3.2%
- Drug uptake (Thyroid gland [20]): 2.1%
- Drug uptake (Thyroid gland [21]): 2.2%
- Drug uptake (Thyroid gland [22]): 4.5%
- Drug uptake (Spleen [23]): 0.5%
- Drug uptake (Spleen [24]): 2.5%
- Drug uptake (Spleen [25]): 9.2%
- Drug uptake (Spleen [26]): 11.8%
- Drug uptake (Lung [27]): 0.2%
- Drug uptake (Lung [28]): 0.35%
- Drug uptake (Lung [29]): 1.5%
- Drug uptake (Lung [30]): 5%
- Drug uptake [31]: 27.4%
- Drug uptake [32]: 36.3%
- Drug uptake [33]: 38%
